# Experiments:
# MN9D cells = experiment: intracellular ATP concentration in dopaminergic neuronal cells; assay type: cell-based; details: 5 μM
# Description: Dopaminergic (MN9D) and non-dopaminergic (MN9X) neuronal cells were treated with 5 μM pyran-1,2-naphthoquinone and the ATP concentration was periodically measured.
# HEK293 cells [1] = experiment: mitochondrial membrane potential (TMRE fluorescence) in HEK293 cells; assay type: cell-based, human
# Description: For determination of the inner mitochondrial membrane potential (ΔΨm), 20 nM of TMRE (tetramethylrhodamine ethyl ester) as a fluorescent indicator was continuously applied to be loaded on cells. In order to monitor mitochondrial Ca^2+, cells on glass coverslips were loaded with 10 μM Rhod-2 AM via cold loading/warm incubation. In order to monitor cytosolic Ca^2+, cells were co-loaded with 10 μM Fluo-4 AM at 37′C for 30 min. The cells were washed twice with a KB solution, and mounted in a perfusion chamber. Fluorescent imaging was taken using a confocal laser scanning microscope (LSM-510 META, Carl Zeiss) at a magnification of ×200 and ×400, in conjunction with appropriate laser lines and a filter set. Image analysis was carried out using LSM-510 META software (Zeiss). Images for TMRE (red fluorescence), Rhod-2 (red fluorescence) and Fluo-4 (green fluorescence) were obtained using an inverted Zeiss 510META laser-scanning confocal microscope equipped with ×63 numerical aperture, 1.4 oil-immersion planapochromat lens. Green fluorescence and red fluorescence were illuminated with light of 488 nm and 543 nm. Incident light was passed through a 545 nm dichroic mirror and observed via a 500 to 530 nm band-pass (green) filter and a 560 nm long-pass (red) barrier filter.
# However, such effects were not observed in HEK293 cells. […]
# HEK293 cells [2] = experiment: calcium influx in NQO1-deficient HEK293 cells; assay type: cell-based, human
# Description: Cells were grown on a coverslip in a culture medium for 24 hours, maintained in an RPMI 1640 serum-free medium for 1 hour, and pretreated with a calcium indicator Fluo-4 (5 μM) for 30 min. After pretreatment, the coverslip was mounted on a slide glass. […] Using an LSM Image Browser program (Carl Zeiss), 300 images taken for 10 min every 2 seconds were sorted and ordered in a time sequence and plotted on a graph.
# NQO1 = experiment: NAD(P)H recycling assay (decrease of NAD(P)H by NQO1-activating candidate compounds); assay type: biochemical
# Description: (10) NAD(P)H Recycling Assay
# An NADH recycling assay was carried out using the above-extracted S9 supernatant or human recombinant NQO1 (hrNQO1). 20 μg of the S9 supernatant or 0.5 unit of hrNQO1 in conjunction with 200 μM NAD(P)H were added to a 25 mM Tris/HCl (pH 7.4) solution containing 0.2 mg/mL bovine serum albumin. The enzymatic reaction was initiated with addition of a […] compound and absorbance changes were monitored and recorded at 340 nm for 10 min.
# For a variety of NQO1-activating candidate compounds as listed in Table 1 below, a decrease of NAD(P)H was measured based on the aforesaid experimental method (disclosed in Section 10 hereinbefore: NADH recycling assay). In addition, according to the experimental method given in Example 23, the body weight of ob/ob mice after four weeks was measured.
# In this connection, the decreasing degree of NAD(P)H was expressed as a relative amount of NAD(P)H measured upon administration of the NQO1-activating candidate compound, by taking the amount of NAD(P)H in the absence of the NQO1 activator NAD(P)H to be 100. In addition, the degree of the body weight loss was expressed as a percentage of the body weight of ob/ob mice with administration of the NQO1-activating candidate compound, relative to the body weight of ob/ob mice without administration of the NQO1-activating candidate compound (control) after four weeks.
# [3] = spontaneous locomotor activity; assay type: in vivo, mouse; details: C57BL/6 DIO mice, 3 hours after administration, measured for 7 hours
# Description: Pyrano-1,2-naphthoquinone was administered to C57BL/6 DIO mice, and 3 hours later spontaneous locomotor activity was measured using Versa MAX Activity Monitors & Analyzer (AccuSan Instruments, Columbus, Ohio, USA). […] In order to distinguish between spontaneous locomotor and stereotypic/grooming behavior, animal activity was measured by taking continuous interference of two different scanning lines caused by mice as an effective determination standard. The pyrano-1,2-naphthoquinone-administered group, the vehicle-administered group and the control group were respectively placed in each measuring apparatus, and activity and motion of animals were measured for 7 hours. For acclimation of the animals to the new environment, mice were placed in the apparatus 2 hours prior to measurement.
# cardiomyocytes = experiment: intracellular NAD(P)H fluorescence in cardiomyocytes; assay type: cell-based
# Description: HepG2 (human hepatoma cell line), HEK293 (Human embryonic kidney cell line), and C2C12/L6 myoblasts were purchased from American Type Culture Collection (ATCC, Manassas, Va., USA). LKB-/- MEFs were purchased from R.A. DePinho. Rat ventricular myocytes were enzymatically isolated from the heart of adult […] by a known method. Phosphorylation of AMPK ([…]) and ACC ([…]) was measured by Western blot analysis using Cell Signaling Technologies and pan- and phospho-specific antibodies (Upstate Biotechnology, Inc., Lake Placid, N.Y.). In order to monitor monochromatic fluorescence (350 nm), light was illuminated using a 75 W xenon arc lamp directed via a 10 Hz chopper wheel; specific fluorescence intensity was measured at a wavelength of 405±15 nm and 460±10 nm. Even though autofluorescence at 460 nm may occur from unknown intracellular components or cytosolic NAD(P)H, most of the light detected by the method of the present invention was generated from mitochondrial NAD(P)H. Specifically, the NQO1 activity and changes in the intracellular NAD(P)H fluorescence concentration in the presence/absence of NQO1 activity were measured in HepG2, HEK293 and pSG5 HA-NQO1 or pSG5 HA NQO1 […]-inserted HEK293 cells.
compound,measurement,setting,value
"CC1(C)CCC2=C(O1)c1ccccc1C(=O)C2=O [βL, 2,2-Dimethyl-3,4-dihydro-2H-benzo[h]chromene-5,6-dione]",intracellular ATP concentration,MN9D cells,decreased
same,effect on TMRE fluorescence / ΔΨm,HEK293 cells [1],not observed
same,calcium peak,HEK293 cells [2],not appeared
same,Residual amount of NAD(P)H(%),"NQO1; relative amount of NAD(P)H, amount in the absence of the NQO1 activator taken to be 100",61.27 ± 1.09%
same,decrease of NAD(P)H and consequent body weight reduction,NQO1; summary of Table 1 in words,significant decrease of NAD(P)H
same,spontaneous locomotor activity,[3],significant difference in the motion and activity of animals
same,decrease of NAD(P)H,cardiomyocytes,about 40%

# — patent US20140106387A1, “METHOD FOR CONTROLLING NAD(P)/NAD(P)H RATIO BY OXIDOREDUCTASE” (MD BIOALPHA CO., LTD., priority 2006, published 2014)
